Source: article PMC4008314 (Clinical cancer research : an official journal of the …, 2012)
Where two headings read alike, the source gives them in different places.

Tests used:
[1] = test system: placental growth factor (PlGF); assay: Plasma PlGF by ELISA, baseline vs steady state; assay type: in vivo, children; details: at steady state vs baseline, P ≤ 0.001
[2] = test system: circulating endothelial cells (CEC); assay: Circulating endothelial cells by fluorescence-activated cell sorter; assay type: in vivo, children; details: paired samples (n = 21), baseline vs end of cycle 1
[3] = test system: circulating endothelial progenitor cells (CEPC); assay: Circulating endothelial progenitor cells by fluorescence-activated cell sorter; assay type: in vivo, children; details: paired samples (n = 21), baseline vs end of cycle 1
[4] = test system: refractory solid tumors; assay: Response evaluation, solid tumors; assay type: in vivo, children
[5] = test system: refractory leukemias (AML and FLT3ITD); assay: Response evaluation, leukemias; assay type: in vivo, children; details: 2 patients with AML and FLT3ITD
[6] = in vivo
[7] = human, in vivo
[8] = test system: plasma VEGF; details: paired samples (n = 26), baseline vs end of cycle 1
[9] = test system: endoglin; details: paired samples (n = 26), baseline vs end of cycle 1
[10] = cited from earlier work
[11] = test system: multiple tumor types; details: cited from earlier work
[12] = cited from earlier work; remark: listed apart in the source
[13] = test system: advanced HCCs; details: adults with advanced HCCs; cited from earlier work
[14] = test system: RCCs; details: adults with RCCs; cited from earlier work
[15] = clinical; details: human, in vivo
[16] = cited from earlier work; remark: listed apart in the source
[17] = test system: refractory leukemias; details: cited from earlier work

CNC(=O)c1cc(Oc2ccc(NC(=O)Nc3ccc(Cl)c(C(F)(F)F)c3)cc2)ccn1 [Sorafenib]
PlGF, change [1]: increase | CEC number, change [2]: no change | CEPC number, change [3]: no change | tumor shrinkage ([4]; 1 patient (#24) with synovial sarcoma, after cycle 1, progression after cycle 2): more than 40% | objective responses ([4]; patients with solid tumors): no confirmed objective responses | patients with stable disease for 4 or more cycles ([4]; solid tumor patients): 14 | bone marrow blasts [5]: less than 5% | Alopecia grade 1 (non-DLT) ([6]; human): 1 | Anorexia grade 2 (non-DLT) ([6]; human): 1 | Fatigue grade 2 (non-DLT) ([6]; human): 2 | Fever grade 1 (non-DLT) ([6]; human): 1 | Hand-foot skin reaction grade 2 (non-DLT) ([6]; human): 2 | Headache grade 1 (non-DLT) ([6]; human): 1 | Headache grade 2 (non-DLT) ([6]; human): 1 | Hemoglobin grade 1 (non-DLT) ([6]; human): 4 | Hemoglobin grade 2 (non-DLT) ([6]; human): 1 | Hemoglobin grade 3 (non-DLT) ([6]; human): 1 | Hypertension grade 1 (non-DLT) ([6]; human): 3 | Hypertension grade 3 (non-DLT) ([6]; human): 1 | Hypoalbuminemia grade 1 (non-DLT) ([6]; human): 1 | Hypocalcemia grade 1 (non-DLT) ([6]; human): 3 | Hypophosphatemia grade 2 (non-DLT) ([6]; human): 1 | Increased ALT grade 2 (non-DLT) ([6]; human): 1 | Increased AST grade 2 (non-DLT) ([6]; human): 1 | Increased bilirubin grade 1 (non-DLT) ([6]; human): 1 | Increased bilirubin grade 2 (non-DLT) ([6]; human): 1 | Leukopenia grade 1 (non-DLT) ([6]; human): 4 | Leukopenia grade 2 (non-DLT) ([6]; human): 2 | Leukopenia grade 3 (non-DLT) ([6]; human): 2 | Lymphopenia grade 1 (non-DLT) ([6]; human): 2 | Lymphopenia grade 2 (non-DLT) ([6]; human): 2 | Lymphopenia grade 3 (non-DLT) ([6]; human): 1 | Nausea grade 3 (non-DLT) ([6]; human): 1 | Neutropenia grade 1 (non-DLT) ([6]; human): 3 | Neutropenia grade 2 (non-DLT) ([6]; human): 1 | Neutropenia grade 3 (non-DLT) ([6]; human): 2 | Pain, Other (jaw) grade 1 (non-DLT) ([6]; human): 1 | Thrombocytopenia grade 2 (non-DLT) ([6]; human): 1 | Vomiting grade 1 (non-DLT) ([6]; human): 1 | Vomiting grade 3 (non-DLT) ([6]; human): 1 | patients who developed a DLT after cycle 1 ([6]; human): 5 | Alopecia grade 1 (non-DLT) ([6]; human, 28 day): 2 | Anorexia grade 1 (non-DLT) ([6]; human, 28 day): 4 | Diarrhea grade 2 (non-DLT) ([6]; human, 28 day): 1 | Fatigue grade 1 (non-DLT) ([6]; human, 28 day): 4 | Fatigue grade 2 (non-DLT) ([6]; human, 28 day): 2 | Fever grade 1 (non-DLT) ([6]; human, 28 day): 2 | Hand-foot skin reaction grade 1 (non-DLT) ([6]; human, 28 day): 1 | Hand-foot skin reaction grade 2 (non-DLT) ([6]; human, 28 day): 1 | Headache grade 1 (non-DLT) ([6]; human, 28 day): 3 | Headache grade 2 (non-DLT) ([6]; human, 28 day): 1 | Hypoalbuminemia grade 1 (non-DLT) ([6]; human, 28 day): 1 | Hypoalbuminemia grade 2 (non-DLT) ([6]; human, 28 day): 1 | Hypocalcemia grade 1 (non-DLT) ([6]; human, 28 day): 3 | Hypophosphatemia grade 2 (non-DLT) ([6]; human, 28 day): 2 | Increased ALT grade 2 (non-DLT) ([6]; human, 28 day): 1 | Increased AST grade 2 (non-DLT) ([6]; human, 28 day): 1 | Increased bilirubin grade 2 (non-DLT) ([6]; human, 28 day): 1 | Lymphopenia grade 1 (non-DLT) ([6]; human, 28 day): 1 | Lymphopenia grade 3 (non-DLT) ([6]; human, 28 day): 1 | Mucositis/stomatitis grade 1 (non-DLT) ([6]; human, 28 day): 2 | Nausea grade 2 (non-DLT) ([6]; human, 28 day): 2 | Rash/Desquamation grade 1 (non-DLT) ([6]; human, 28 day): 3 | Rash/Desquamation grade 2 (non-DLT) ([6]; human, 28 day): 1 | Thrombocytopenia grade 1 (non-DLT) ([6]; human, 28 day): 4 | Thrombocytopenia grade 2 (non-DLT) ([6]; human, 28 day): 1 | Hand-foot skin reaction grade 1 (non-DLT) ([6]; human, 28 days): 1 | Hemoglobin grade 1 (non-DLT) ([6]; human, 28 days): 3 | Hemoglobin grade 2 (non-DLT) ([6]; human, 28 days): 1 | Hemoglobin grade 3 (non-DLT) ([6]; human, 28 days): 2 | Hypertension grade 1 (non-DLT) ([6]; human, 28 days): 4 | Hypertension grade 2 (non-DLT) ([6]; human, 28 days): 1 | Hyponatremia grade 1 (non-DLT) ([6]; human, 28 days): 3 | Leukopenia grade 1 (non-DLT) ([6]; human, 28 days): 5 | Leukopenia grade 2 (non-DLT) ([6]; human, 28 days): 2 | Leukopenia grade 3 (non-DLT) ([6]; human, 28 days): 2 | Pain, Other (forearm) grade 1 (non-DLT) ([6]; human, 28 days): 1 | Rash/Desquamation grade 2 (non-DLT) ([6]; human, 28 days): 3 | recommended phase II dose ([6]; human, 28 days): 200 mg/m^2/dose | Lymphopenia grade 1 (non-DLT) ([6]; human, 28 days (course 1)): 2 | Lymphopenia grade 2 (non-DLT) ([6]; human, 28 days (course 1)): 1 | Lymphopenia grade 3 (non-DLT) ([6]; human, 28 days (course 1)): 2 | Neutropenia grade 1 (non-DLT) ([6]; human, 28 days (course 1)): 5 | Neutropenia grade 2 (non-DLT) ([6]; human, 28 days (course 1)): 1 | Neutropenia grade 3 (non-DLT) ([6]; human, 28 days (course 1)): 2 | Thrombocytopenia grade 1 (non-DLT) ([6]; human, 28 days (course 1)): 4 | bony abnormalities on serial plain radiographs [6]: No bony abnormalities | Tmax, steady state [7]: 0.8 h | plasma VEGF concentration, change [8]: no change | plasma endoglin concentration, change [9]: no change | in vitro activity [10]: low micromolar concentrations | in vivo antitumor activity [11]: growth inhibition observed in multiple tumor types | AUC0–12h ([12]; adults, 400-mg dose after multiple doses): 47800 to 76500 ng·h/mL | adults requiring dose reductions with chronic administration ([12]; mostly due to skin toxicity and diarrhea): Up to a third | recommended fixed dose ([12]; twice daily, adults): 400 mg | objective response [13]: 2% | objective response [14]: 10% | half-life [15]: ≥ 24 h | AUC(0-t) ([15]; 130 mg/m2, AUC0–24h, day 1): 20000 ng·h/mL | Tmax ([15]; 130 mg/m2, Tmax, day 1): 7.9 h | Tmax ([15]; 150 mg/m2, Tmax, steady state): 3 h | AUC(0-t) ([15]; 200 mg/m2, AUC0–24h, day 1): 19000 ng·h/mL | Cmax ([15]; 200 mg/m2, Cmax, day 1): 1000 ng/mL | AUC(0-t) ([15]; 200 mg/m2, median steady-state AUC0–12h): 55700 ng·h/mL | AUC(0-t) ([15]; 250 mg/m2, AUC0–24h, day 1): 27600 ng·h/mL | Tmax ([15]; 250 mg/m2, Tmax, day 1): 8 h | Tmax ([15]; […]2, Tmax, day 1): 5 h | AUC(0-t) ([15]; mean (SD) AUC0–12h steady state): 61200 ng·h/mL | Cmax ([15]; po, 130 mg/m2, Cmax, day 1): 1500 ng/mL | AUC(0-t) ([15]; po, 150 mg/m2, AUC0–12h, steady state): 49700 ng·h/mL | AUC(0-t) ([15]; po, 150 mg/m2, AUC0–24h, day 1): 28300 ng·h/mL | Cmax ([15]; po, 150 mg/m2, Cmax, day 1): 1900 ng/mL | AUC(0-t) ([15]; po, 200 mg/m2, AUC0–12h, steady state): 60200 ng·h/mL | AUC(0-t) ([15]; po, 200 mg/m2, AUC0–24h, day 1): 27300 ng·h/mL | Cmax ([15]; po, 200 mg/m2, Cmax, day 1): 1600 ng/mL | Cmax ([15]; po, 200 mg/m2, Cmax, steady state): 8300 ng/mL | Tmax ([15]; po, 200 mg/m2, Tmax, steady state): 3.4 h | Tmax ([15]; po, […]2, Tmax, day 1): 5 h | incidence of grade 2 and 3 hand foot skin reactions and rashes ([16]; children with solid tumors, sorafenib in combination): 5 of 19 | recommended phase II dose ([16]; twice daily, with bevacizumab and cyclophosphamide): 90 mg/m^2/dose | sorafenib steady-state (day 7) concentration ([17]; 150 mg/m^2, children with refractory leukemia): 7.0 ± 1.8 µg/mL | sorafenib steady-state (day 7) concentration ([17]; 200 mg/m^2, children with refractory leukemia): 6.5 ± 3.6 µg/mL | patients with complete remission ([17]; after combination therapy): 6 | patients with decreased blast percentages ([17]; by day 8): 10 of 12 | conversion of sorafenib to the active N-oxide metabolite ([17]; children vs that reported in adult patients): much higher rate of conversion | incidence of grade 2 and 3 hand foot skin reactions and rashes ([17]; children with leukemia, sorafenib in combination): 8 of 12
